From US10806740B2, “Natural combination hormone replacement formulations and therapies” (TherapeuticsMD, Inc., priority 2012, dated 2020)

Legend:
Format in all cases: physicochemical
[1] = Estradiol solutions after addition of 7% water
Source text: In addition to determining physical stability of the estradiol solutions over time, it is necessary to determine if the fill material will be stable during the encapsulation process. One way to test these preparations is with the addition of water to the fill mass. […].
All CAPMUL® PG8 containing formulations turned hazy on the addition of water.

[2] = Progesterone solubility in solvents
Source text: . Thus, MIGLYOL® may be used in embodiments comprising a suspension of progesterone, though MIGLYOL®, standing alone, is not desirable for use in embodiments having fully solubilized progesterone and/or estradiol.

[3] = Particle size analysis with Beckman Device (laser diffraction); conditions: Fraunhofer optical model
Method: Particle size may be determined in any suitable manner. For example, a Beckman Coulter LS 13 320 Laser Diffraction Particle Size Analyzer (the “Beckman Device”) may be used to determine particle size. As described above, particle size may be represented by various metrics, for example, through an X50 particle size, and/or X90 particle size, or similar descriptions of particle size.
For the purposes of this Example, a particle size analysis is conducted by using the Beckman Device. A sample API comprising micronized progesterone in accordance with various embodiments is provided for analysis.
Approximately 0.01 g of a sample API in accordance with various embodiments was combined with Coulter 1B and 10 mL of deionized water. Sonication was performed for 15 seconds. The Beckman Device, equipped with a ULM, performed analysis for 90 seconds. The Beckman Device was configured to use the Fraunhofer optical model. […] The Beckman Device also yielded that the mean particle size is 4.975 μm, the median particle size is 4.279 μm, the mode particle size is 6.453 μm, and the standard deviation is 3.956 μm.
A formulation sample having approximately 200 mg of micronized progesterone and 2 mg of estradiol was dispersed with oil. The Beckman Device, equipped with a MLM, performed analysis for 60 seconds. The Beckman Device was configured to use the Fraunhofer optical model.

## C[C@]12CC[C@@H]3c4ccc(O)cc4CC[C@H]3[C@@H]1CC[C@@H]2O [Estradiol, (17β)-estra-1,3,5(10)-triene-3,17-diol]
[1]; estradiol 6 mg/g in CAPMUL MCM
  Results after addition of 7% water: without recrystallization
[1]; estradiol 6 mg/g in MIGLYOL 812:CAPMUL PG8 (75:25)
  Results after addition of 7% water: Precipitated
[1]; estradiol 6 mg/g in Polyethylene Glycol 400
  Results after addition of 7% water: without recrystallization
[1]; estradiol 12 mg/g in CAPMUL MCM
  Results after addition of 7% water: Clear
[1]; estradiol 12 mg/g in MIGLYOL 812:CAPMUL PG8 (50:50)
  Results after addition of 7% water: Hazy
[1]; estradiol 12 mg/g in Polyethylene Glycol 400
  Results after addition of 7% water: clear
[1]; estradiol 12 mg/g in TRANSCUTOL:MIGLYOL 812:CAPMUL PG8 (5:47:47)
  Results after addition of 7% water: Hazy
[1]; estradiol 12 mg/g in TRANSCUTOL:MIGLYOL 812:CAPMUL PG8 (5:65:28)
  Results after addition of 7% water: Hazy

## CC(=O)[C@H]1CC[C@H]2[C@@H]3CCC4=CC(=O)CC[C@]4(C)[C@H]3CC[C@]12C [Progesterone, pregn-4-ene-3,20-dione]
[2]; in CAPMUL MCM
  Progesterone Solubility: 73.4 mg/g
[2]; in CAPMUL MCM:GELUCIRE 44/14 (6:3)
  Progesterone Solubility: 57.4 mg/g
[2]; in CAPMUL MCM:GELUCIRE 44/14 (6:4)
  Progesterone Solubility: 57.4 mg/g
[2]; in CAPMUL MCM:GELUCIRE 44/14 (7:3)
  Progesterone Solubility: 70.5 mg/g
[2]; in CAPMUL MCM:GELUCIRE 44/14 (9:1)
  Progesterone Solubility: 86.4 mg/g
[2]; in CAPMUL MCM:GELUCIRE 44/14 (9:1), listed as progesterone
  Progesterone Solubility: approximately 86 mg/g
[2]; in CAPMUL MCM, listed as progesterone
  Progesterone Solubility: ~73 mg/g
[2]; in CAPMUL PG8
  Progesterone Solubility: 95 mg/g
[2]; in MIGLYOL 812
  Progesterone Solubility: 27.8 mg/g
[3]
  X25 particle size: 1.590 μm
  X50 particle size: 4.279 μm
  X75 particle size: 7.442 μm
  mean particle size: 4.975 μm
  median particle size: 4.279 μm
  mode particle size: 6.453 μm
